The results in this text go back to ChEMBL document CHEMBL5291721, “A preclinical secondary pharmacology resource illuminates target-adverse drug reaction associations of marketed drugs” (Nat Commun, 2023).

Test [1] addresses 3',5'-cyclic-AMP phosphodiesterase 4D (Homo sapiens, UniProt Q08499). Format: functional.
Test [2] has as its target T1, 5-hydroxytryptamine receptor 1A (Homo sapiens, UniProt P08908).
T1 sequence (P08908 whole entry): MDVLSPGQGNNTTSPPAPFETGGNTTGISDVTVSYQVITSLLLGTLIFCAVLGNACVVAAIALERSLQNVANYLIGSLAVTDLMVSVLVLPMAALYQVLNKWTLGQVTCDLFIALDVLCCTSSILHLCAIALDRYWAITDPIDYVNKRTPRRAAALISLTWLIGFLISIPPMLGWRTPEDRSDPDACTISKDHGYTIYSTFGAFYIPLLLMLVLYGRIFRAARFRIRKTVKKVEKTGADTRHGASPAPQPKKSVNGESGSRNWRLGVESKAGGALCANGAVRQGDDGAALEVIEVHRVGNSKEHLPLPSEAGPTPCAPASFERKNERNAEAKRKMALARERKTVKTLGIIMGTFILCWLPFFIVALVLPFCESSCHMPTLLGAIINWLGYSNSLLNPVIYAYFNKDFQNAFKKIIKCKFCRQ
Format: functional, cell-based.

Test [3] addresses T2, Cholecystokinin receptor type A (Homo sapiens, UniProt P32238).
T2 sequence (P32238 whole entry): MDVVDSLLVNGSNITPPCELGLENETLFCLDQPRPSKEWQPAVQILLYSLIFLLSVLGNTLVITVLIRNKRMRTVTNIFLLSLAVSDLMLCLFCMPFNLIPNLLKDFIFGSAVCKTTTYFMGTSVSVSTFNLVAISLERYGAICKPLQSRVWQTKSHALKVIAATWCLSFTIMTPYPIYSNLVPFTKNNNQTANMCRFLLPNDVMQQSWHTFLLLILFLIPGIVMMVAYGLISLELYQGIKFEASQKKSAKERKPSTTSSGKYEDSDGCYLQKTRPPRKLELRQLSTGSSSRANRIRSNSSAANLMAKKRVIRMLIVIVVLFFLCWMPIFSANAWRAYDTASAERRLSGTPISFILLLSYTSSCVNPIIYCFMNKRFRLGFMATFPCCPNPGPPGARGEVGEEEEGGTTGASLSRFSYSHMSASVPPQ

Test [4] has as its target T3, Alpha-1A adrenergic receptor (Homo sapiens, UniProt P35348).
T3 sequence (P35348 whole entry): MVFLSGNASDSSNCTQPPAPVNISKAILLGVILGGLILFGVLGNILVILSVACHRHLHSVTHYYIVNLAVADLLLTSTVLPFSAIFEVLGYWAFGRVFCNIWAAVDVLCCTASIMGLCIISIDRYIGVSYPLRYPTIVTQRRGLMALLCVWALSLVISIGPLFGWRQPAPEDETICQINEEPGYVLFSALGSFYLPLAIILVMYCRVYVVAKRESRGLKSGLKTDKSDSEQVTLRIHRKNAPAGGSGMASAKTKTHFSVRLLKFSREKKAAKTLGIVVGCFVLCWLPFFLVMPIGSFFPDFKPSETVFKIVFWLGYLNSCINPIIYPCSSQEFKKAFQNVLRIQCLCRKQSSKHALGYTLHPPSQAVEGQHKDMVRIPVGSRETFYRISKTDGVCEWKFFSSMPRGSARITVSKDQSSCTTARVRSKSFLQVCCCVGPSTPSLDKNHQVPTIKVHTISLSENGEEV
Format: functional, cell-based.

Test [5] has as its target T4, Prostaglandin G/H synthase 1 (Rattus norvegicus, UniProt Q63921).
T4 sequence (Q63921 whole entry): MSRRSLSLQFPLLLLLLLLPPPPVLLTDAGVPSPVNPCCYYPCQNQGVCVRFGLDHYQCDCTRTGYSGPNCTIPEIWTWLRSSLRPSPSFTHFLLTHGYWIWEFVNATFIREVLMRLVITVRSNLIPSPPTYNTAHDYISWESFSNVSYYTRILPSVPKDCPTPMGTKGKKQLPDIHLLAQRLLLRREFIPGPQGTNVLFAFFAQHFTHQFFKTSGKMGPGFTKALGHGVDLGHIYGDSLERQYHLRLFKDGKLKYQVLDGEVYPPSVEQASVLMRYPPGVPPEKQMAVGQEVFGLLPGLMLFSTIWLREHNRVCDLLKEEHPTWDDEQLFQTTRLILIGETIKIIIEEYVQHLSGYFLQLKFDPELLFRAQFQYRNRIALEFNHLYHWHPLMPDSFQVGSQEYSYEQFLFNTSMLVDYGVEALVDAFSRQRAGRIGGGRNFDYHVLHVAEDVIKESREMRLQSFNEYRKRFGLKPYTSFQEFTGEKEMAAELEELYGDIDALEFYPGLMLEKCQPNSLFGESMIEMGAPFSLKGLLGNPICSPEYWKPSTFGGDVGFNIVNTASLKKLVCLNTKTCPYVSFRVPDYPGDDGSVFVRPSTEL
Format: functional.

For another test, the target named is Cannabinoid receptor 1 (Homo sapiens, UniProt P21554). Format: functional, cell-based.
Chain of Cannabinoid receptor 1 (P21554 whole entry): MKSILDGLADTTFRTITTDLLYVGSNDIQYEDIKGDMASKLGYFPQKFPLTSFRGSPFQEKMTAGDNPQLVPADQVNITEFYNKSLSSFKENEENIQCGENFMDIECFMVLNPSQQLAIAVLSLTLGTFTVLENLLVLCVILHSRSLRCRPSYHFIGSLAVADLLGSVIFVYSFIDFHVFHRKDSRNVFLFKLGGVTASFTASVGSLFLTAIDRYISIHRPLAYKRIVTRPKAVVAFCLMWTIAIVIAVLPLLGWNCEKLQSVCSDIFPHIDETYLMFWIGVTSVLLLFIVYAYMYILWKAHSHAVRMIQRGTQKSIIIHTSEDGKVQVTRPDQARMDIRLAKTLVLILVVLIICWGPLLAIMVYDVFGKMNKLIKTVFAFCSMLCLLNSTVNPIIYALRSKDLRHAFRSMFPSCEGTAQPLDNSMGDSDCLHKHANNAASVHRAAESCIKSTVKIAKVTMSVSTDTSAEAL
A further test has as its target T5, Adenosine receptor A3 (Homo sapiens, UniProt P0DMS8).
T5 sequence (P0DMS8 whole entry): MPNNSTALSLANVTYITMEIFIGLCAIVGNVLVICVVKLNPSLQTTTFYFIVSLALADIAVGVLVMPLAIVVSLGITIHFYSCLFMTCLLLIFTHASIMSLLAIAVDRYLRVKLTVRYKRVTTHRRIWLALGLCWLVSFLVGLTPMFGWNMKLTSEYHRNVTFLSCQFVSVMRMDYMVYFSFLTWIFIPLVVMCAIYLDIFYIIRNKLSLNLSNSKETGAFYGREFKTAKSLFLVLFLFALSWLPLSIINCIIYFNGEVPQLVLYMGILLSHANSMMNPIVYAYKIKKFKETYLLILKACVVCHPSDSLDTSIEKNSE

A further test has as its target Motilin receptor (Homo sapiens, UniProt O43193).
In test [6] the target is Beta-1 adrenergic receptor (Homo sapiens, UniProt P08588). Format: functional.
Chain of Beta-1 adrenergic receptor (P08588 whole entry): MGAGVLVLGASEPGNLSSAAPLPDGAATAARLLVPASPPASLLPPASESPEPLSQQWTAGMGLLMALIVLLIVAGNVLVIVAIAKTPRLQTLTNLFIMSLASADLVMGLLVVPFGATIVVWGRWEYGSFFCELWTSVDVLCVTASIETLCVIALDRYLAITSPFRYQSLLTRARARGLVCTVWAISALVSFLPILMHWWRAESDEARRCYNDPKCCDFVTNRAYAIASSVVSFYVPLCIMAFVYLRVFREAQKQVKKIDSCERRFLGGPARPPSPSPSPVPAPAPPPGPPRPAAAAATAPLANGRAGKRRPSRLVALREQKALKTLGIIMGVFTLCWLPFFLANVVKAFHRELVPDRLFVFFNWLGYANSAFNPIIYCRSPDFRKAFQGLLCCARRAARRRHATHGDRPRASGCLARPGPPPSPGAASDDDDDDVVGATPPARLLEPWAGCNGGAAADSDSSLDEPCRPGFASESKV
Also: assay procedure not described here.

Chain of 3',5'-cyclic-AMP phosphodiesterase 4D (Q08499 whole entry): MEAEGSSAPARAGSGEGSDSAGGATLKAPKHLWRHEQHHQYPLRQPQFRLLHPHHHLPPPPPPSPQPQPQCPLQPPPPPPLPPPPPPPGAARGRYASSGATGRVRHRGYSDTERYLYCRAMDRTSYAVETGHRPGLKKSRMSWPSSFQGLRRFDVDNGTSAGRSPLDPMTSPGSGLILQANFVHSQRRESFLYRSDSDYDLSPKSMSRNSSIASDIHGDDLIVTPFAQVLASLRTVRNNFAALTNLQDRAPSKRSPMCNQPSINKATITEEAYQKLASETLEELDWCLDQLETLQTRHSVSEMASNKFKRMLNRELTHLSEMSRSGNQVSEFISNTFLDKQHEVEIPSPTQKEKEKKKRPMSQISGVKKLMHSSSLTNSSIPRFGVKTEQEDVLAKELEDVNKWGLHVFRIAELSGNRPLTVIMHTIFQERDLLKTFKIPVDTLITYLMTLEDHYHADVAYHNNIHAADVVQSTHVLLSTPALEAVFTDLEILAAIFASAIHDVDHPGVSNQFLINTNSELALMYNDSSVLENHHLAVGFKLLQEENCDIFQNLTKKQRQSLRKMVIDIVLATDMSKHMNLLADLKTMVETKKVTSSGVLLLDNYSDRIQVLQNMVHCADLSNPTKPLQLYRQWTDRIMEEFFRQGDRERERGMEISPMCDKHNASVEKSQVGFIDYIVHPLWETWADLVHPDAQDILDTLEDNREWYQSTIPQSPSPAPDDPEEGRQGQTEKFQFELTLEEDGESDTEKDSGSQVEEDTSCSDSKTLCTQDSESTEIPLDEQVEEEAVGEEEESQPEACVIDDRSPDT
Chain of Motilin receptor (O43193 whole entry): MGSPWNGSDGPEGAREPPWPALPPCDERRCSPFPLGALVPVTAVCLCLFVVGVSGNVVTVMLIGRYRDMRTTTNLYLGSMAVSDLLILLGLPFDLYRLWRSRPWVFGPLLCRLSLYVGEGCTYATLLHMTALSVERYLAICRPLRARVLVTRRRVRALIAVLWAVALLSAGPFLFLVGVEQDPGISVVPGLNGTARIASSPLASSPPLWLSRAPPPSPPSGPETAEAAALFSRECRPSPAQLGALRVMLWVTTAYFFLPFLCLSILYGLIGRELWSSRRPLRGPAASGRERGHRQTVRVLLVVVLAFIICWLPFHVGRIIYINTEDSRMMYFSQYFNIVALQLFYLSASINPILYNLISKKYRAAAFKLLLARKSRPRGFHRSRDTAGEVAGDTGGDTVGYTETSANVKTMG

Take `OC[C@H]1O[C@@](CO)(O[C@H]2O[C@H](CO)[C@@H](O)[C@H](O)[C@H]2O)[C@@H](O)[C@@H]1O` [SUCROSE]: the half-maximal activity concentration (AC50) (in test [1]; in [2]; in [3]; in test [4]; in test [5]; on Cannabinoid receptor 1) was > 30 µM throughout. The AC50 on Adenosine receptor A3 and on Motilin receptor was > 30 µM throughout.
As to `COc1ccc(CC2c3cc(OC)c(OC)cc3CC[N+]2(C)CCC(=O)OCCCCCOC(=O)CC[N+]2(C)CCc3cc(OC)c(OC)cc3C2Cc2ccc(OC)c(OC)c2)cc1OC` (centres undefined), the AC50 in test [1] is > 30 µM; in [2], > 30 µM; in [3] it was > 30 µM; in test [4], 12 µM; in test [5], > 30 µM; in test [6] it was > 30 µM. For the same molecule, the AC50 on Adenosine receptor A3 and at Motilin receptor was > 30 µM in each case.
Consider `CC(C)(C)NCC(O)c1cc(O)cc(O)c1` (centres undefined) [TERBUTALINE], for which the AC50 (in test [3]; in test [5]; on Adenosine receptor A3; at Motilin receptor) was > 30 µM throughout.
As to `CC(N)C12CC3CC(CC(C3)C1)C2` (centres undefined) [RIMANTADINE], the AC50 in test [1] is > 30 µM; in [2], > 10 µM; in test [3], > 10 µM; in test [5], > 10 µM; in test [6], > 10 µM; at Adenosine receptor A3, > 10 µM. Besides, the AC50 on Motilin receptor is > 10 µM.
With `CCN(CC)CCNC(=O)c1c(C)[nH]c(/C=C2\C(=O)Nc3ccc(F)cc32)c1C` [SUNITINIB], the half-maximal activity concentration (AC50) is 9.8 µM in test [1]; > 30 µM in test [2]; 6.7 µM in test [3]; > 30 µM in [5]; > 30 µM at Cannabinoid receptor 1; 8.4 µM at Adenosine receptor A3. In addition, the AC50 at Motilin receptor was 7.3 µM.
On to `O=C1CN(/N=C/c2ccc(-c3ccc([N+](=O)[O-])cc3)o2)C(O)=N1` [DANTROLENE], for which the AC50 in test [1] is > 30 µM; in test [2], > 10 µM; in test [3], > 10 µM; in [5], > 10 µM; in test [6], > 10 µM; on Adenosine receptor A3, > 30 µM. The AC50 on Motilin receptor was > 10 µM.
For `CC(C(=O)O)c1ccc2c(c1)[nH]c1ccc(Cl)cc12` (centres undefined) [CARPROFEN], the AC50 was 5.2 µM in test [1]; > 10 µM in test [2]; > 30 µM in test [3]; > 30 µM in test [5]; > 30 µM in test [6]; > 30 µM on Adenosine receptor A3. Also, the AC50 at Motilin receptor is > 30 µM.
In the case of `CN(CC1(C)CCCO1)S(=O)(=O)c1ccc(Cl)c(S(N)(=O)=O)c1` (centres undefined) [MEFRUSIDE], the half-maximal activity concentration (AC50) (in [1]; in test [4]; at Cannabinoid receptor 1) was > 30 µM in each case.
Take `C#C[C@]1(O)CC[C@H]2[C@@H]3CCC4=CC(=O)CC[C@@H]4[C@H]3C(=C)C[C@@]21CC` [ETONOGESTREL]: the AC50 (in test [1]; in test [2]; in [4]; at Cannabinoid receptor 1) was > 30 µM throughout.
Regarding `CCCN(CCC)C(=O)Cc1c(-c2ccc(Cl)cc2)nc2ccc(Cl)cn12` [ALPIDEM], the AC50 in test [1] was 13 µM; in test [2], > 30 µM; in test [3] it was > 30 µM; in [5] it was > 30 µM; in test [6], > 30 µM; at Adenosine receptor A3, 11.5 µM. On Motilin receptor, the AC50 was > 30 µM.
`CCCC(CCC)C(=O)O` [VALPROIC ACID]: the AC50 in test [1] is > 30 µM; in test [2], > 10 µM; in [3], > 30 µM; in test [5], > 30 µM; in test [6], > 10 µM; at Adenosine receptor A3, > 30 µM. Besides, the AC50 at Motilin receptor was > 10 µM.
For the molecule `COc1cc2nc(N3CCN(C(=O)C4CCCO4)CC3)nc(N)c2cc1OC` (centres undefined) [TERAZOSIN], the AC50 in test [1] was > 30 µM; in test [2] it was > 10 µM; in test [3] it was > 30 µM; in test [5], > 30 µM; in test [6] it was > 10 µM; at Cannabinoid receptor 1, > 30 µM. Further, the concentration at half-maximal activity (AC50) at Adenosine receptor A3 is > 30 µM; on Motilin receptor, > 10 µM.
With `CN1C(C(=O)Nc2ccccn2)=C(O)c2ccccc2S1(=O)=O` [PIROXICAM], the AC50 is > 30 µM in [1]; > 10 µM in test [2]; > 10 µM in test [3]; > 10 µM in test [6]; > 10 µM on Adenosine receptor A3; > 10 µM on Motilin receptor.
`CN(C)CCC[C@@]1(c2ccc(F)cc2)OCc2cc(C#N)ccc21` [ESCITALOPRAM]: the half-maximal activity concentration (AC50) (in test [1]; in test [2]; in test [3]; in test [5]; in test [6]; at Cannabinoid receptor 1) was > 30 µM throughout. The AC50 on Adenosine receptor A3 and on Motilin receptor was > 30 µM each time.
Turning to `CN1C[C@H](C(=O)N[C@]2(C)O[C@@]3(O)[C@@H]4CCCN4C(=O)[C@H](Cc4ccccc4)N3C2=O)C=C2c3cccc4[nH]cc(c34)C[C@H]21` [ERGOTAMINE], the AC50 in test [1] was > 30 µM; in [2], 0.22 µM; in [3] it was > 30 µM; in [5], 26 µM; in test [6], > 30 µM; at Cannabinoid receptor 1 it was > 30 µM. For the same molecule, the AC50 on Adenosine receptor A3 and at Motilin receptor was > 30 µM each time.
For the molecule `C=C[C@H]1C[N@@]2CC[C@H]1C[C@@H]2[C@@H](O)c1ccnc2ccc(OC)cc12` [QUINIDINE], the AC50 (in test [1]; in test [2]; in [3]; in [5]; at Cannabinoid receptor 1; on Adenosine receptor A3) was > 30 µM each time. On Motilin receptor, the AC50 is > 10 µM.
`C[C@@H](Oc1cc(-c2cnn(C3CCNCC3)c2)cnc1N)c1c(Cl)ccc(F)c1Cl` [CRIZOTINIB]: the AC50 in test [1] was 4.8 µM; in test [2], > 10 µM; in test [3], > 30 µM; in [5] it was 8.2 µM; in [6] it was > 30 µM; on Cannabinoid receptor 1 it was > 10 µM. Besides, the AC50 at Adenosine receptor A3 was determined as 8.93 µM; at Motilin receptor it was 16 µM.
